Measurements from paper doi:10.1101/2024.02.23.581731v1 (biorxiv, 2024).
pIC50: −log10 of the molar value.

Target: T1, h5-HT3AR (Homo sapiens, UniProt P46098, M223I)
T1 sequence (P46098 24-478 M223I): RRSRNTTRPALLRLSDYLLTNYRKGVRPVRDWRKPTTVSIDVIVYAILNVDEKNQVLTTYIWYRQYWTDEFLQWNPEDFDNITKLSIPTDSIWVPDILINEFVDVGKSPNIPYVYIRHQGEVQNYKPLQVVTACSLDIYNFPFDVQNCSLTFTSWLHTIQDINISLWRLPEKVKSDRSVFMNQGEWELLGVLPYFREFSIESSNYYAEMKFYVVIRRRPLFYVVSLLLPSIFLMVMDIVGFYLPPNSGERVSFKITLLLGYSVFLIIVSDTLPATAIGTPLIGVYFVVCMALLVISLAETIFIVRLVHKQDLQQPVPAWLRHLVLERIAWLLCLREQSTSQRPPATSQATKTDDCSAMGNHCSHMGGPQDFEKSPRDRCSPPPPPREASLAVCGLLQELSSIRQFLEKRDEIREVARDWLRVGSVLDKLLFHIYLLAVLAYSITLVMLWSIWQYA
Experiment: FLIPR Blue membrane potential assay, inhibition of 5-HT response
Format: cell-based

pIC50: 7.70
SMILES: Cc1ccc(Sc2ccccc2N2CCNCC2)c(C)c1 [vortioxetine]
